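1) Cells in 96-well plates. 2) Compound, 48 h, 5 concentrations. 3) Linear interpolation between surrounding doses. 4) Unreached endpoint = highest concentration. The concentration for 50% growth inhibition is given as GI50. TGI is the concentration that stops growth completely.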

The first assay deals with COLO 205 colon. The assay is described as follows: NCI tumour cell line growth inhibition, 48 h.
`NCC1CCN(c2nc3ccccc3c3c2CCCC3)CC1` gave a TGI of 3.13 µM.
On to `CCN(CC)CCc1c2c(nc3ccccc13)C(=O)c1cccnc1C2=O`, for which the TGI was 3.07 µM.
Same read-out and setting: the figure for `Nc1cc(CO)cc(Nc2nc3ccc(Cl)cc3c3[nH]c4ccccc4c23)c1` is 11.6 µM; for `Cc1c(F)c(N)c2c(=O)cc(-c3ccc(NC(=O)CN(C)C)c(F)c3)oc2c1F` it is more than 100 µM.
As for `COc1ccccc1Nc1nc(N)nc(N)c1N=O`, the TGI was more than 100 µM.
As for `COc1cccc2c(N)c3cccc(C(=O)NCCN(C)C)c3nc12`, the TGI worked out at 0.592 µM.
Still for that read-out and setting: the figure for `CCN1CC2=C(NC(=S)NC2c2ccc(Cl)cc2)/C(=C/c2ccc(Cl)cc2)C1` (centres undefined) is more than 100 µM.
Regarding `O=C(/C=C/c1ccc(O)c([N+](=O)[O-])c1)CC(=O)/C=C/c1ccc(O)c([N+](=O)[O-])c1`, the TGI was more than 100 µM.
The same measure, in the same setting: the figure for `OCC1CCCCCCCCCCC12SCCCS2` (centres undefined) is more than 100 µM; for `C=C(C)C12CC(COC(=O)c3ccccc3)C34OC5(OC1C3C1OC1(CO)C(O)C1(O)C(OC(=O)c3ccccc3)C(C)C(C(C)CCCCCCC5O)C14)O2` (centres undefined) it is 24.4 µM.
`O=C(O)c1cc2c(cc1CC(Cc1ccc3c(c1)CCC3)C(=O)O)CCC2` (centres undefined) came in with a TGI of more than 100 µM.
Same read-out and setting: the figure for `CC(C)=CCOC(=O)C(C)=[N+]=[N-]` is more than 100 µM; for `O=C1C(Cl)=C(N2CCN(C3=C(Cl)C(=O)c4ccccc4C3=O)CC2)C(=O)c2ccccc21` it is 3.1 µM; for `Cc1c(-c2nc3ccccc3[nH]2)c(=O)n(-c2ccccc2)n1C` it is more than 100 µM.

A further assay has as its system HCC-2998 colon. The assay is described as follows: NCI tumour cell line growth inhibition, 48 h.
On to `COc1ccc(C2CC(c3c(O)ccc4ccccc34)=NN2c2ccc([N+](=O)[O-])cc2[N+](=O)[O-])cc1OC` (centres undefined), for which the TGI was more than 100 µM.
In turn, `S=C(N/N=C\C=N/NC(=S)N1CCCCC1)N1CCCCC1` returned a TGI of more than 100 µM.
Molecule `C=C1CC(COc2cc(=O)oc3ccccc23)(c2ccccc2)OC1=O` (centres undefined) gave a TGI of 4.21 µM.
`C[N+]1=C2[B-](C(C)(C)C)=[N+](C(C)(C)C)[B-]2(C(C)(C)C)[N+](C)=C2[B-](C(C)(C)C)=[N+](C(C)(C)C)[B-]21C(C)(C)C` (centres undefined): the TGI was more than 100 µM.
Molecule `Brc1ccc(CCNCCN2CCCCC2)cc1` registered a TGI of 27.7 µM.
On the same count and under the same terms, the figure for `Cc1ccc(C(=O)Nc2ccc(CP(=O)(O)O)cc2CP(=O)(O)O)cc1NC(=O)c1cccc(N)c1` is more than 100 µM; for `OC1C2[C@@H](O)CCCN2C[C@@H](O)[C@H]1O` (some centres undefined) it is more than 100 µM.
For the molecule `COCOC1/C=C/CCCC#C[C@H](C)C(=O)CC1` (some centres undefined), the TGI was 28.9 µM.
Same read-out and setting: the figure for `CN(C)/N=N/c1nc2c(c(=O)n(C)c(=O)n2C)n1C` is more than 100 µM.
Turning to `COc1ccc2[nH]c(O)c(/C=c3/cc4c(c(-c5cc(OC)c(OC)c(OC)c5)n3)=Nc3ccccc3-4)c2c1`, the GI50 is 34 µM and the TGI was more than 100 µM.
`NCC1CCN(c2nc3ccccc3c3c2CCCC3)CC1` registered a TGI of 3.46 µM.
`CCN(CC)CCc1c2c(nc3ccccc13)C(=O)c1cccnc1C2=O` came in with a TGI of 7.55 µM.
For `Cc1c(F)c(N)c2c(=O)cc(-c3ccc(NC(=O)CN(C)C)c(F)c3)oc2c1F`, the TGI was more than 100 µM.
The same measure, in the same setting: the figure for `COc1ccccc1Nc1nc(N)nc(N)c1N=O` is more than 100 µM.
On the same count and under the same terms, the figure for `COc1cccc2c(N)c3cccc(C(=O)NCCN(C)C)c3nc12` is 0.971 µM; for `CCN1CC2=C(NC(=S)NC2c2ccc(Cl)cc2)/C(=C/c2ccc(Cl)cc2)C1` (centres undefined) it is more than 100 µM; for `C=C(C)C12CC(COC(=O)c3ccccc3)C34OC5(OC1C3C1OC1(CO)C(O)C1(O)C(OC(=O)c3ccccc3)C(C)C(C(C)CCCCCCC5O)C14)O2` (centres undefined) it is more than 64.8 µM.
Still for that read-out and setting: the figure for `O=C(O)c1cc2c(cc1CC(Cc1ccc3c(c1)CCC3)C(=O)O)CCC2` (centres undefined) is more than 100 µM; for `CC(C)=CCOC(=O)C(C)=[N+]=[N-]` it is more than 100 µM.
`O=C1C(Cl)=C(N2CCN(C3=C(Cl)C(=O)c4ccccc4C3=O)CC2)C(=O)c2ccccc21` displayed a TGI of 8.35 µM.
Still for that read-out and setting: the figure for `Cc1c(-c2nc3ccccc3[nH]2)c(=O)n(-c2ccccc2)n1C` is more than 100 µM.

For a further assay, the system named is HCT-116 colon. The assay is described as follows: NCI tumour cell line growth inhibition, 48 h.
As for `COc1ccc(C2CC(c3c(O)ccc4ccccc34)=NN2c2ccc([N+](=O)[O-])cc2[N+](=O)[O-])cc1OC` (centres undefined), the TGI is more than 100 µM.
The same measure, in the same setting: the figure for `S=C(N/N=C\C=N/NC(=S)N1CCCCC1)N1CCCCC1` is more than 100 µM; for `CN1C(=O)C2C(=O)N(Cc3ccccc3)CC(=O)N2c2cccnc21` (centres undefined) it is more than 100 µM.
As to `C=C1CC(COc2cc(=O)oc3ccccc23)(c2ccccc2)OC1=O` (centres undefined), the TGI was 2.87 µM.
Still for that read-out and setting: the figure for `CN(C)CCCOc1nc2c(c(=O)n(C)c(=O)n2C)n1C` (tested in a mixture with another compound) is more than 100 µM; for `C[N+]1=C2[B-](C(C)(C)C)=[N+](C(C)(C)C)[B-]2(C(C)(C)C)[N+](C)=C2[B-](C(C)(C)C)=[N+](C(C)(C)C)[B-]21C(C)(C)C` (centres undefined) it is more than 100 µM; for `Brc1ccc(CCNCCN2CCCCC2)cc1` it is 24.4 µM.
The same measure, in the same setting: the figure for `Cc1ccc(C(=O)Nc2ccc(CP(=O)(O)O)cc2CP(=O)(O)O)cc1NC(=O)c1cccc(N)c1` is more than 100 µM; for `OC1C2[C@@H](O)CCCN2C[C@@H](O)[C@H]1O` (some centres undefined) it is more than 100 µM.
Same read-out and setting: the figure for `COCOC1/C=C/CCCC#C[C@H](C)C(=O)CC1` (some centres undefined) is 5.99 µM.
`CN(C)/N=N/c1nc2c(c(=O)n(C)c(=O)n2C)n1C` came in with a TGI of more than 100 µM.
`COc1ccc2[nH]c(O)c(/C=c3/cc4c(c(-c5cc(OC)c(OC)c(OC)c5)n3)=Nc3ccccc3-4)c2c1`: the GI50 was 3.49 µM and the TGI came out at 64.7 µM.
As to `NCC1CCN(c2nc3ccccc3c3c2CCCC3)CC1`, the TGI was determined as 9.91 µM.
Same read-out and setting: the figure for `CCN(CC)CCc1c2c(nc3ccccc13)C(=O)c1cccnc1C2=O` is 3.53 µM; for `Nc1cc(CO)cc(Nc2nc3ccc(Cl)cc3c3[nH]c4ccccc4c23)c1` it is 25.4 µM.
The same measure, in the same setting: the figure for `Cc1c(F)c(N)c2c(=O)cc(-c3ccc(NC(=O)CN(C)C)c(F)c3)oc2c1F` is more than 100 µM; for `COc1ccccc1Nc1nc(N)nc(N)c1N=O` it is more than 100 µM.
With `COc1cccc2c(N)c3cccc(C(=O)NCCN(C)C)c3nc12`, the TGI was determined as 0.726 µM.
`CCN1CC2=C(NC(=S)NC2c2ccc(Cl)cc2)/C(=C/c2ccc(Cl)cc2)C1` (centres undefined): the TGI was more than 100 µM.
The molecule `O=C(/C=C/c1ccc(O)c([N+](=O)[O-])c1)CC(=O)/C=C/c1ccc(O)c([N+](=O)[O-])c1` displayed a TGI of more than 100 µM.
With `OCC1CCCCCCCCCCC12SCCCS2` (centres undefined), the TGI is more than 100 µM.
Same read-out and setting: the figure for `C=C(C)C12CC(COC(=O)c3ccccc3)C34OC5(OC1C3C1OC1(CO)C(O)C1(O)C(OC(=O)c3ccccc3)C(C)C(C(C)CCCCCCC5O)C14)O2` (centres undefined) is more than 100 µM; for `O=C(O)c1cc2c(cc1CC(Cc1ccc3c(c1)CCC3)C(=O)O)CCC2` (centres undefined) it is more than 100 µM.
Still for that read-out and setting: the figure for `CC(C)=CCOC(=O)C(C)=[N+]=[N-]` is more than 100 µM; for `O=C1C(Cl)=C(N2CCN(C3=C(Cl)C(=O)c4ccccc4C3=O)CC2)C(=O)c2ccccc21` it is 2.76 µM.
As to `Cc1c(-c2nc3ccccc3[nH]2)c(=O)n(-c2ccccc2)n1C`, the TGI was more than 100 µM.

The next assay relates to HS 578T breast. The assay is described as follows: NCI tumour cell line growth inhibition, 48 h.
Consider `COc1ccc(C2CC(c3c(O)ccc4ccccc34)=NN2c2ccc([N+](=O)[O-])cc2[N+](=O)[O-])cc1OC` (centres undefined), for which the TGI was more than 89.7 µM.

The values are drawn from PubChem BioAssay (NCI).
